Read-outs that look alike come from different tables or passages of the source.

Assay [1] has as its system tumor. As to the kind of experiment: Anti-tumor activity of Compound A stated in words (GB 2121796A / inventors' own observation). Particulars: noted by the present inventors.
Assay [2] concerns tumor. Particulars: reported in GB 2121796A; cited from earlier work.
The test system of the next assay is leukemia P-388. Description: Anti-tumor activity against leukemia P-388. It is filed as in vivo, mouse (CDF1). Particulars: for ILS %: i.p. once, 33 days. How it is done:
(§1) Ascites was sampled from the abdominal cavity of tumor-bearing mice (DBA/2) 7 days after transplantation of P-388 ascitic tumor. The number of the P-388 cells in the ascites was counted. A suspension of the tumor cells of 5×10^6 /ml was prepared using sterilized physiological saline, and 0.2 ml of the suspension (containing 1×10^6 cells) was intraperitoneally transplanted to CDF1 mice weighing 20 to 25 g. Twenty-four hours after the transplantation of the tumor, a test compound was intraperitoneally administered once to groups of the CDF1 mice, each group consisting of 6 mice. […] The effect of the compound was evaluated by a ratio of a mean survival days of the group treated with the compound to a mean survival days of the control group (untreated group) after 33 days of observation (Increased Life Span, ILS %).

Assay [3] has as its system P-388 leukemia resistant to mitomycin C. As to the kind of experiment: Anti-tumor activity against P-388 leukemia resistant to mitomycin C. It is filed as in vivo, mouse (CDF1). Conditions: for ILS %: i.p. once. How it is done:
as §1

With `CO[C@@]12[C@H](COC(N)=O)C3=C(C(=O)C(C)=C(N=CN(C)C)C3=O)N1C[C@@H]1N[C@@H]12` [Compound A, 7-N-Dimethylaminomethylenemitomycin C], the anti-tumor activity result in the assay with tumor [1] was “excellent anti-tumor activity”; with tumor [2], “particularly excellent anti-tumor activity”. For the same molecule, the “maximum increased life span” value in the assay on leukemia P-388 (P-388, Table 3, maximum over doses) was 75%; in assay [3] (P-388 resistant to mitomycin C, Table 4, maximum over doses), 73%. In addition, the ILS % with leukemia P-388 (dose 0.0625 mg/kg) is given as 15%; with leukemia P-388 (dose 0.125 mg/kg) it was 48%; with leukemia P-388 (dose 0.25 mg/kg), 45%; in the assay with leukemia P-388 (dose 0.5 mg/kg) it was 63%; with leukemia P-388 (dose 1.0 mg/kg) it was 68%; with leukemia P-388 (dose 2.0 mg/kg), 75%. In addition, the ILS % is 20% in the assay with leukemia P-388 (dose 4.0 mg/kg); 47% in assay [3] (dose 0.25 mg/kg); 73% in assay [3] (dose 0.5 mg/kg); 68% in assay [3] (dose 1.0 mg/kg); 47% in assay [3] (dose 2.0 mg/kg); -41% in assay [3] (dose 4.0 mg/kg). Further, the ILS % in assay [3] (dose 6.0 mg/kg) is reported as -47%.

(Values after US4748251A, “7-n-aminomethylenemitomycin derivative” (priority 1985, dated 1988).)
